One experiment deals with MCF7. Nature of the experiment: Growth inhibition of human MCF7 cells after 48 hrs by SRB assay. Type of experiment: functional. To be noted: MCF7, 48 h. A general note: In SRB staining, fixed cells bind dye roughly in proportion to their protein.
For a further experiment, the system named is NCI-H460. Nature of the experiment: Growth inhibition of human NCI-H460 cells after 48 hrs by SRB assay. Type of experiment: functional. To be noted: NCI-H460, 48 h.
Experiment [1] deals with SF-268. Briefly: Growth inhibition of human SF268 cells at 100 uM after 48 hrs by SRB assay. Type of experiment: functional, cell-based.
The test system of the next experiment is Staphylococcus aureus. Nature of the experiment: Antibacterial activity against Staphylococcus aureus ATCC 6538P at 2.5 ug/spot after 24 hrs by bioautographic agar overlay method. Type of experiment: functional, organism-based.
For a further experiment, the system named is Escherichia coli. Nature of the experiment: Antibacterial activity against Escherichia coli ATCC 25922 at 40 ug/spot after 24 hrs by bioautographic agar overlay method. Type of experiment: functional, organism-based.
The next experiment has as its system Pseudomonas aeruginosa. Briefly: Antibacterial activity against Pseudomonas aeruginosa ATCC 27853 at 40 ug/spot after 24 hrs by bioautographic agar overlay method. Type of experiment: functional, organism-based.
In experiment [2] the test system is SF-268. Nature of the experiment: Growth inhibition of human SF268 cells after 48 hrs by SRB assay. The following applies: SF-268, 48 h. Type of experiment: functional.

Structures are written as SMILES. Calls of active or inactive are those of the source. The calls are words filed in the database; no cut-off is given here.

As a reminder, the GI50 is the concentration that inhibits growth by half. The low end stands for greater sensitivity of the cells, the high end for lower sensitivity of the cells. With `CC1=C2C=C3CC[C@@H]4C(C)(C)[C@@H](O)CC[C@@]4(C)[C@@H]3C[C@H]2OC1=O` [HELIOSCOPINOLIDE B], the GI50 with MCF7 is 77 µM; in the experiment with NCI-H460, greater than 100 µM; in the experiment on SF-268 [2], greater than 100 µM. In addition, the outcome in the experiment on SF-268 [1], with Escherichia coli and in the experiment with Pseudomonas aeruginosa was inactive. For the same compound, the outcome in the experiment with Staphylococcus aureus was Active.

`C=C1C[C@H](OC(C)=O)C(=O)C(C)(C)/C=C/[C@@H](C)C(=O)[C@@]2(OC(C)=O)C[C@H](C)[C@H](OC(=O)c3ccccc3)[C@]2(O)[C@H]1OC(C)=O` [PUBESCENOL]: the GI50 with MCF7 was 69 µM; in the experiment on NCI-H460 it was 55.6 µM; in the experiment with SF-268 [2] it was 75.2 µM.

On to `CC(=O)O[C@H]1[C@H](C)C[C@]2(O)C(=O)/C(C)=C/CC(C)(C)[C@H](OC(C)=O)C[C@@H](OC(=O)c3ccccc3)/C(C)=C/[C@@H]12` [PUBESCENE D], for which the GI50 in the experiment with MCF7 was 37.5 µM; with NCI-H460, 37.5 µM; with SF-268 [2] it was 90.1 µM.

Consider `CC1=C2C=C3CC[C@@H]4C(C)(C)[C@H](O)CC[C@@]4(C)[C@@H]3C[C@H]2OC1=O` [HELIOSCOPINOLIDE A], for which the results for the 50% growth inhibitory concentration (GI50) in the experiment on MCF7, in the experiment with NCI-H460 and with SF-268 [2] were 67.5 µM, 72.8 µM and greater than 100 µM, respectively. Further, the result with SF-268 [1], in the experiment on Escherichia coli and in the experiment with Pseudomonas aeruginosa was inactive. Moreover, in the experiment with Staphylococcus aureus, the result was Active.

Consider `COc1cccc2c1C(=O)c1c(O)c3c(c(O)c1C2=O)C[C@@](O)(C(=O)CO)C[C@@H]3O[C@H]1C[C@H](N)[C@H](O)[C@H](C)O1` [DOXORUBICIN], for which the values for the GI50 in the experiment on MCF7, in the experiment with NCI-H460 and with SF-268 [2] were 42.8 µM, 0.094 µM and 0.093 µM, respectively.
